Data from ChEMBL document CHEMBL4411299, “A class of novel tubulin polymerization inhibitors exert effective anti-tumor activity via mitotic catastrophe” (Eur J Med Chem, 2019).
Active and inactive are the calls of the source. The rule behind the calls is not given here.

What was measured:
HeLa [1] = assay: Inhibition of colony formation in human HeLa cells after 2 weeks by crystal violet staining-based assay; assay type: functional, cell-based
HeLa [2] = assay: Induction of apoptosis in human HeLa cells assessed as increase in cleaved PARP level at 0.02 to 0.1 uM after 24 hrs by Western blot analysis; assay type: functional, cell-based
HT-29 = assay: Antiproliferative activity against human HT-29 cells after 48 hrs by MTT assay; assay type: functional; details: HT-29, 48 h
HeLa [3] = assay: Antitumor activity against human HeLa cells xenografted in nude mouse assessed as tumor weight at 20 mg/kg, iv administered every other day up to 20 days (reference value: 1.014 +/- 0.116g); assay type: functional
MDA-MB-231 = assay: Antiproliferative activity against human MDA-MB-231 cells after 48 hrs by MTT assay; assay type: functional; details: MDA-MB-231, 48 h
[4] = MRT (0 to infinity) in Sprague-Dawley rat at 1.5 mg/kg, iv administered as single dose by LC-MS/MS analysis; assay type: ADME, organism-based; details: in vivo
A549 = assay: Antiproliferative activity against human A549 cells after 48 hrs by MTT assay; assay type: functional; details: A549, 48 h
HeLa [5] = assay: Inhibition of colony formation in human HeLa cells at 0.1 uM after 2 weeks by crystal violet staining-based assay relative to control; assay type: functional; details: 336 h
HeLa [6] = assay: Induction of apoptosis in human HeLa cells assessed as late apoptotic cells at 0.05 uM after 24 hrs by Annexin V-FITC/propidium iodide staining-based flow cytometric analysis (reference value: 3.51%); assay type: functional
HeLa [7] = assay: Induction of apoptosis in human HeLa cells assessed as necrotic cells at 0.1 uM after 24 hrs by Annexin V-FITC/propidium iodide staining-based flow cytometric analysis (reference value: 0.05%); assay type: functional
[8] = Apparent volume of distribution in Sprague-Dawley rat at 1.5 mg/kg, iv administered as single dose by LC-MS/MS analysis; assay type: ADME, organism-based; details: in vivo, read-out: Vd(app)
HeLa [9] = assay: Induction of ROS generation in human HeLa cells at 0.02 to 0.2 uM after 12 hrs by DCFH-DA staining-based flow cytometric analysis; assay type: functional, cell-based
Tubulin (Homo sapiens) [10] = molecular target: T1, Tubulin (Homo sapiens) (UniProt P68371+Q9H4B7+P0DPH7+P68366+Q13509+Q71U36+P04350+Q3ZCM7+P07437+P68363+Q9BQE3+Q6PEY2+Q13885+Q9BVA1+Q9BUF5); assay: Inhibition of tubulin polymerization in human HeLa cells assessed as induction of microtubule fiber breakdown at 0.02 uM after 12 hrs by DAPI staining-based confocal fluorescence microscopic analysis; assay type: cell-based
[11] = AUC (0 to infinity) in Sprague-Dawley rat at 1.5 mg/kg, iv administered as single dose by LC-MS/MS analysis; assay type: ADME, organism-based; set-up: dose 1.5 mg/kg, route intravenous, time infinity; details: in vivo
HeLa [12] = assay: Cell cycle arrest in human HeLa cells assessed as reduction in accumulation of cells at S phase up to 0.4 uM after 24 hrs by propidium iodide staining-based flow cytometric analysis; assay type: functional
HeLa [13] = assay: Antiproliferative activity against human HeLa cells after 48 hrs by MTT assay; assay type: functional
[14] = Cmax in Sprague-Dawley rat at 1.5 mg/kg, iv administered as single dose by LC-MS/MS analysis; assay type: ADME, organism-based; set-up: dose 1.5 mg/kg, route intravenous; details: in vivo
Tubulin (Homo sapiens) [15] = molecular target: T1, Tubulin (Homo sapiens); assay: Inhibition of tubulin polymerization in human HeLa cells assessed as induction of mitotic phase arrest at 0.02 uM after 12 hrs by DAPI staining-based confocal fluorescence microscopic analysis; assay type: cell-based
[16] = Half life in female Sprague-Dawley rat at 1.5 mg/kg, iv administered as single dose by LC-MS/MS analysis; assay type: ADME, organism-based; details: in vivo
Tubulin (Homo sapiens) [17] = molecular target: T1, Tubulin (Homo sapiens); assay: Inhibition of tubulin polymerization in human HeLa cells assessed as induction of shorter microtubule fibers at 0.02 uM after 12 hrs by DAPI staining-based confocal fluorescence microscopic analysis; assay type: cell-based
[18] = MRT (0 to t) in Sprague-Dawley rat at 1.5 mg/kg, iv administered as single dose by LC-MS/MS analysis; assay type: ADME, organism-based; details: in vivo
[19] = Toxicity in mouse xenografted with human HeLa cells assessed as change in liver weight at 5 to 20 mg/kg, iv administered every other day up to 20 days; assay type: organism-based; details: in vivo, 480 h
[20] = Stability in human liver microsomes assessed as parent compound remaining at 5 uM after 2 hrs in presence of NADPH regenerating system by LC-MS/MS analysis; assay type: ADME, Microsome
HeLa [21] = assay: Induction of apoptosis in human HeLa cells assessed as viable cells at 0.05 uM after 24 hrs by Annexin V-FITC/propidium iodide staining-based flow cytometric analysis (reference value: 92.8%); assay type: functional; details: read-out: Activity

GI50 (HT-29): 100 nM
GI50 (MDA-MB-231): 140 nM
MRT inf [4]: 65.4 min
GI50 (A549): 300 nM
Vd [8]: 5.03 L/kg
Activity (Tubulin (Homo sapiens) [10]): Active
AUC(0-inf) [11]: 414 ng·h/mL
GI50 (HeLa [13]): 50 nM
Cmax [14]: 594 ng/mL
Activity (Tubulin (Homo sapiens) [15]): Active
half-life [16]: 55.8 min
Activity (Tubulin (Homo sapiens) [17]): Active
MRT last [18]: 54.6 min
Stability [20]: 31.1%
Compound: COC(=O)N1N=C(c2cccc(C)c2)CC1c1cc(OC)c(OC)c(OC)c1 (centres undefined)
inhibition (HeLa [1]): Dose-dependent effect
Activity (HeLa [2]): Active
Activity (HeLa [3]): 0.266 g
inhibition at 0.1 µM (HeLa [5]): ≤ 80%
Activity (HeLa [6]): 4.95%
Activity (HeLa [7]): 0.829%
Activity (HeLa [9]): Active
Activity (HeLa [12]): Active
Activity [19]: Non-Toxic
viability at 0.05 µM (HeLa [21]): 84.4%
